Results: US20250214951A1, “3-PHENYLISOXAZOLE DERIVATIVE, AND PHARMACEUTICAL COMPOSITION FOR PREVENTING OR TREATING EYE DISEASE, CONTAINING SAME AS ACTIVE INGREDIENT” (VASTHERA CO., LTD., priority 2022, published 2025)

Columns and labels:
Format in all cases: cell-based, human
[1] = test system: A2E accumulated in ARPE-19 cells; assay: Removal of intracellular A2E measured by HPLC/LC-MS; details: ARPE-19 loaded with 50 μM A2E 48 h; 10, 25, 50 μM, 24 h; FIG. 2
Description: In Table 1 and FIG. 1, in order to measure the reduction of intracellular A2E by compounds, A2E-fluorescent substance (A2E-BDP) that is easy to observe fluorescence was used. In previous research reports, A2E-BDP is known to have the same intracellular dynamics and characteristics as A2E, but since A2E is a substance that actually exists in a living body, the quantitative change in intracellular A2E was directly measured using the HPLC method as follows.
ARPE-19 cell lines were dispensed into 6-well plates at a concentration of 4×10^3 cells/well and cultured for 24 hours. ARPE-19 cell lines were treated with A2E at a concentration of 50 μM for 48 hours to accumulate A2E intracellularly. To evaluate the A2E removal ability, ARPE-19 cells containing A2E were treated with compound 17 of the present invention (10, 25, 50 μM) for 24 hours. Thereafter, ARPE-19 cells were washed with phosphate-buffered saline (PBS), and cell lysis buffer containing a protease inhibitor was added to prepare a cell lysate. Chloroform and methanol (2:1, vol/vol) were added to the sample obtained above, shaken to extract A2E, and then centrifuged at 10,000 g for 10 minutes. […] LC-MS (Shimadzu LC-MS 2010EV) analysis was performed using a C18 column ([…]) with acetonitrile and 0.1% formic acid (gradient, 0-100%, 0-10 min; flow rate 1.0 ml/min; monitored at 503 nm). […]

LC3-II = assay: Autophagy activation in A2E-accumulated ARPE-19 (LC3-II Western); details: 25, 50, 100 μM, 12 h; FIG. 8
Procedure: A2E is known to inhibit intracellular autophagy. Therefore, it was measured whether example 17 compound of the present invention also increases autophagy in ARPE-19 cell lines accumulating A2E.
Specifically, ARPE-19 cell lines were dispensed into 6-well plates at a concentration of 1×10^5 cells/well and cultured for 24 hours. The cells were treated with A2E at a concentration of […] for 24 hours. Thereafter, the cells were treated with example 17 compound of the present invention at concentrations of 25, 50, and 100 μM for 12 hours each. Thereafter, cell lysate preparation and measurement of LC3-II by Western immunoblotting were performed in the same manner as in Experimental Example 7, and the results are shown in FIG. 8.

NF-κB (p65) = assay: Inhibition of blue light-induced NF-κB activation (p65 Western immunoblotting); details: A2E and blue light; 10 and 25 μM; FIG. 4
Description: When cells are stimulated by external pathogenic molecules (PAMPs), NF-κB dimers (p50-p65 dimers) are separated from IκB and activated. The separated NF-κB dimers pass through the nuclear membrane and enter the nucleus, where they bind to DNA and activate gene transcription, indicating the activation of NF-κB. Therefore, the inhibitory effect of the compound of the present invention on NF-κB activation can be evaluated by measuring changes in the cytoplasmic or nuclear levels of p65. The experiment was conducted as follows.
ARPE-19 cells were seeded in 6-well plates at a concentration of 2×10^4 cells/well and cultured for 24 hours. In order to induce A2E accumulation in the ARPE-19 cell line, cells were treated with A2E three times at a concentration of 25 μM at 48-hour intervals. 24 hours after the final A2E treatment, cells were treated with compound 17 of the present invention twice at concentrations of 10 and 25 μM at 24-hour intervals, respectively. […] The level of p65 was measured by Western immunoblotting using anti-p65 antibody (Cell Signaling Technology, MA, USA). The cytoplasmic and nuclear fractions were measured by Western immunoblotting in the same manner as above using antibodies against α-tubulin (Cell Signaling Technology) and histone H3 (Abcam, Cambridge, UK) as internal controls, respectively.

[2] = test system: p62 protein phosphorylated at serine 349 (p-p62 (S349)); assay: Autophagy activation by increase of p-p62 (S349), Western immunoblotting; details: indicated concentrations; FIG. 14
Procedure: The cells were treated with the test compounds at the indicated concentrations, and the autophagy activation effect through the increase of p62 protein (p-p62 (S349)) phosphorylated at serine 349 residue was measured by Western immunoblotting using an anti-p-p62 antibody, and the results are shown in FIG. 14. The increase in the intracellular P-p62 ([…]) level is one of the major indicators of autophagy activation.

p62 protein = assay: Restoration of autophagy inhibited by A2E and blue light (p62 Western); details: ARPE-19, A2E accumulation and blue light; FIG. 10
Description: Therefore, it was confirmed whether the compound of the present invention can restore autophagy inhibited by A2E and blue light.
During the autophagosome formation process, p62 specifically binds to a substance to be degraded and simultaneously binds to LC3 protein to form an autophagosome. When autophagy is inhibited, aggregates composed of p62 and ubiquitinated proteins are formed and p62 accumulates in the cell. Therefore, by measuring the change in the level of intracellular p62, the improvement effect of the compound of the present invention on autophagy inhibited by A2E and blue light can be evaluated, and the experiment was conducted as follows.
Specifically, ARPE-19 cells were seeded into 6-well plates at a concentration of 2×10^4 cells/well and cultured for 24 hours. To induce A2E accumulation in the ARPE-19 cell line, the cells were treated with A2E three times at a concentration of 25 μM at 48-hour intervals. 24 hours after the final A2E treatment, the cells were treated with example 17 compound twice at 24-hour intervals each. […] The amount of intracellular p62 was measured by Western immunoblotting using an anti-p62 antibody (Santa Cruz, TX, USA). The amount of intracellular β-actin was measured in the same manner using anti-β-actin antibody (Santa Cruz) and used as a control.

Question: Which “amount of accumulated A2E (HPLC)” value [1] does the source give for `C=CCOCc1cc(-c2cc(CC=C)ccc2OC)no1` [Example 17, 3-(5-allyl-2-methoxyphenyl)-5-((allyloxy)methyl)isoxazole] here?
Answer: Its value is “significantly reduced in a concentration-dependent manner”.

Question: What about the “LC3-II level in A2E-accumulated ARPE-19” value (LC3-II) of the same molecule?
Answer: The value was “an increase in LC3-II”.

Question: What about the “activation of NF-κB (movement of p65 into the nucleus)” value (NF-κB (p65)) of the same molecule?
Answer: The value was “activation of NF-κB was inhibited”.

Question: What about the “autophagy activation through increase of p-p62 (S349)” value [2] of the same molecule?
Answer: Its value is “activated autophagy in a concentration-dependent manner”.

Question: What about the p62 protein concentration (p62 protein) of the same molecule?
Answer: Its p62 protein concentration is “decreased in a concentration-dependent manner”.
